Results published in patent publication US4450269A, “Mono-5-substituted-3-chloro-4H-1,2,6-thiadiazin-4-one antifungal agents” (FMC Corporation, priority 1980, dated 1984).
Structures can show the parent of a compound that is named as a salt.

Experiments:
Venturia inaequalis = experiment: Spore germination test; type: cell-based; conditions: VI, 48 hours
Protocol: VI = Venturia inaequalis
The test chemical was dissolved or suspended in acetone in an amount such that 0.8 ml of the resulting suspension or solution, mixed with 40 ml water agar produced a water agar solution containing 40, 10, 2.5 and 1 ppm of test chemical. The resulting agar solution, at 50° C., was then divided equally between two sterile petri dishes, each having four separated quadrants, and allowed to solidify. […] quadrants of each dish were flooded with 0.1 ml of a spore suspension in sterile water. Spores of two pathogens, Erysiphe polygoni and Uromyes phaseoli, from infected plant leaves, were brushed on the remaining two quadrants. The tests were then incubated 48 hours, at 24° C.
Readings were then taken and the percentage of germinated spores calculated. From this percentage, a spore germination rating was assigned as follows: […]

Uromyces phaseoli = experiment: whole plant or invertebrate; conditions: foliar, read-out: Percent Disease Control, foliar, bean rust

## 3-chloro-5-(bromophenoxy)-4H-1,2,6-thiadiazin-4-one [Compound 33]
Venturia inaequalis; 1.0 ppm
  Spore Germination Rating: 0 (0-10)
Venturia inaequalis; 2.5 ppm
  Spore Germination Rating: 0 (0-10)
Venturia inaequalis; 10 ppm
  Spore Germination Rating: 0 (0-10)
Venturia inaequalis; 40 ppm
  Spore Germination Rating: 0 (0-10)

## O=c1c(Cl)nsnc1Oc1ccccc1 [Compound 2, 3-chloro-5-phenoxy-4H--1,2,6-thiadiazin-4-one]
Uromyces phaseoli
  pest or weed control at 150 ppm: 100%
Venturia inaequalis; 1.0 ppm
  Spore Germination Rating: 4 (80-100)
Venturia inaequalis; 2.5 ppm
  Spore Germination Rating: 2 (40-60)
Venturia inaequalis; 10 ppm
  Spore Germination Rating: 0 (0-10)
Venturia inaequalis; 40 ppm
  Spore Germination Rating: 0 (0-10)

## Cc1ccc(Oc2nsnc(Cl)c2=O)cc1 [Compound 3, 3-chloro-5-(4-methylphenoxy)-4H--1,2,6-thiadiazin-4-one]
Uromyces phaseoli
  pest or weed control at 150 ppm: 100%
Venturia inaequalis; 1.0 ppm
  Spore Germination Rating: 4 (80-100)
Venturia inaequalis; 2.5 ppm
  Spore Germination Rating: 4 (80-100)
Venturia inaequalis; 10 ppm
  Spore Germination Rating: 0 (0-10)
Venturia inaequalis; 40 ppm
  Spore Germination Rating: 0 (0-10)

## CC(C)(C)c1ccc(Oc2nsnc(Cl)c2=O)cc1 [Compound 4, 3-chloro-5-(4-tert-butylphnoxy)-4H--1,2,6-thiadiazin-4-one]
Uromyces phaseoli
  pest or weed control at 150 ppm: 100%
Venturia inaequalis; 1.0 ppm
  Spore Germination Rating: 4 (80-100)
Venturia inaequalis; 2.5 ppm
  Spore Germination Rating: 4 (80-100)
Venturia inaequalis; 10 ppm
  Spore Germination Rating: 0 (0-10)
Venturia inaequalis; 40 ppm
  Spore Germination Rating: 0 (0-10)

## COc1ccc(Oc2nsnc(Cl)c2=O)cc1 [Compound 5, 3-chloro-5-(4-methoxyphenoxy)4H--1,2,6-thiadiazin-4-one]
Uromyces phaseoli
  pest or weed control at 150 ppm: 100%
Venturia inaequalis; 1.0 ppm
  Spore Germination Rating: 3 (60-80)
Venturia inaequalis; 2.5 ppm
  Spore Germination Rating: 0 (0-10)
Venturia inaequalis; 10 ppm
  Spore Germination Rating: 0 (0-10)
Venturia inaequalis; 40 ppm
  Spore Germination Rating: 0 (0-10)

## CCCCOc1ccc(Oc2nsnc(Cl)c2=O)cc1 [Compound 6, 3-chloro-5-(4-n-butoxyphenoxy)-4H--1,2,6-thiadiazin-4-one]
Uromyces phaseoli
  pest or weed control at 150 ppm: 0%
Venturia inaequalis; 1.0 ppm
  Spore Germination Rating: 1 (10-40)
Venturia inaequalis; 2.5 ppm
  Spore Germination Rating: 0 (0-10)
Venturia inaequalis; 10 ppm
  Spore Germination Rating: 0 (0-10)
Venturia inaequalis; 40 ppm
  Spore Germination Rating: 0 (0-10)

## CCOC(=O)c1ccc(Oc2nsnc(Cl)c2=O)cc1 [Compound 7, 3-chloro-5-(4-ethoxycarbonylphenoxy)-4H--1,2,6-thiadiazin-4-one]
Uromyces phaseoli
  pest or weed control at 150 ppm: 100%
Venturia inaequalis; 1.0 ppm
  Spore Germination Rating: 0 (0-10)
Venturia inaequalis; 2.5 ppm
  Spore Germination Rating: 0 (0-10)
Venturia inaequalis; 10 ppm
  Spore Germination Rating: 0 (0-10)
Venturia inaequalis; 40 ppm
  Spore Germination Rating: 0 (0-10)

## CC(=O)Nc1ccc(Oc2nsnc(Cl)c2=O)cc1 [Compound 8, 5-(4-acetylaminophenoxy)-3-chloro-4H--1,2,6-thiadiazin-4-one]
Uromyces phaseoli
  pest or weed control at 150 ppm: 100%
Venturia inaequalis; 1.0 ppm
  Spore Germination Rating: 4 (80-100)
Venturia inaequalis; 2.5 ppm
  Spore Germination Rating: 3 (60-80)
Venturia inaequalis; 10 ppm
  Spore Germination Rating: 2 (40-60)
Venturia inaequalis; 40 ppm
  Spore Germination Rating: 0 (0-10)

## O=c1c(Cl)nsnc1Oc1ccc([N+](=O)[O-])cc1 [Compound 9, 3-chloro-5-(4-nitrophenoxy)-4H--1,2,6-thiadiazin-4-one]
Uromyces phaseoli
  pest or weed control at 150 ppm: 98%
Venturia inaequalis; 1.0 ppm
  Spore Germination Rating: 0 (0-10)
Venturia inaequalis; 2.5 ppm
  Spore Germination Rating: 0 (0-10)
Venturia inaequalis; 10 ppm
  Spore Germination Rating: 0 (0-10)
Venturia inaequalis; 40 ppm
  Spore Germination Rating: 0 (0-10)

## N#Cc1ccc(Oc2nsnc(Cl)c2=O)cc1 [Compound 10, 3-chloro-5-(4-cyanophenoxy)-4H--1,2,6-thiadiazin-4-one]
Uromyces phaseoli
  pest or weed control at 150 ppm: 100%
Venturia inaequalis; 1.0 ppm
  Spore Germination Rating: 0 (0-10)
Venturia inaequalis; 2.5 ppm
  Spore Germination Rating: 0 (0-10)
Venturia inaequalis; 10 ppm
  Spore Germination Rating: 0 (0-10)
Venturia inaequalis; 40 ppm
  Spore Germination Rating: 0 (0-10)

## O=c1c(Cl)nsnc1Oc1ccc(F)cc1 [Compound 11, 3-chloro-5-(4-fluorophenoxy)-4H--1,2,6-thiadiazin-4-one]
Uromyces phaseoli
  pest or weed control at 150 ppm: 0%
Venturia inaequalis; 1.0 ppm
  Spore Germination Rating: 4 (80-100)
Venturia inaequalis; 2.5 ppm
  Spore Germination Rating: 1 (10-40)
Venturia inaequalis; 10 ppm
  Spore Germination Rating: 0 (0-10)
Venturia inaequalis; 40 ppm
  Spore Germination Rating: 0 (0-10)

## O=c1c(Cl)nsnc1Oc1ccc(Cl)cc1 [Compound 12, 3-chloro-5-(4-chlorophenoxy)-4H--1,2,6-thiadiazin-4-one]
Uromyces phaseoli
  pest or weed control at 150 ppm: 100%
Venturia inaequalis; 1.0 ppm
  Spore Germination Rating: 1 (10-40)
Venturia inaequalis; 2.5 ppm
  Spore Germination Rating: 0 (0-10)
Venturia inaequalis; 10 ppm
  Spore Germination Rating: 0 (0-10)
Venturia inaequalis; 40 ppm
  Spore Germination Rating: 0 (0-10)

## O=c1c(Cl)nsnc1Oc1cccc(Cl)c1 [Compound 13, 3-chloro-5-(3-chlorophenoxy)-4H--1,2,6-thiadiazin-4-one]
Uromyces phaseoli
  pest or weed control at 150 ppm: 100%
Venturia inaequalis; 1.0 ppm
  Spore Germination Rating: 1 (10-40)
Venturia inaequalis; 2.5 ppm
  Spore Germination Rating: 0 (0-10)
Venturia inaequalis; 10 ppm
  Spore Germination Rating: 0 (0-10)
Venturia inaequalis; 40 ppm
  Spore Germination Rating: 0 (0-10)

## O=c1c(Cl)nsnc1Oc1ccccc1Cl [Compound 14, 3-chloro-5-(2-chlorophenoxy)-4H--1,2,6-thiadiazin-4-one]
Uromyces phaseoli
  pest or weed control at 150 ppm: 0%
Venturia inaequalis; 1.0 ppm
  Spore Germination Rating: 0 (0-10)
Venturia inaequalis; 2.5 ppm
  Spore Germination Rating: 0 (0-10)
Venturia inaequalis; 10 ppm
  Spore Germination Rating: 0 (0-10)
Venturia inaequalis; 40 ppm
  Spore Germination Rating: 0 (0-10)

## O=c1c(Cl)nsnc1Oc1ccc(Br)cc1 [Compound 15, 3-chloro-5-(4-bromophenoxy)-4H--1,2,6-thiadiazin-4-one]
Uromyces phaseoli
  pest or weed control at 150 ppm: 100%
Venturia inaequalis; 1.0 ppm
  Spore Germination Rating: 0 (0-10)
Venturia inaequalis; 2.5 ppm
  Spore Germination Rating: 0 (0-10)
Venturia inaequalis; 10 ppm
  Spore Germination Rating: 0 (0-10)
Venturia inaequalis; 40 ppm
  Spore Germination Rating: 0 (0-10)

## O=c1c(Cl)nsnc1Oc1ccc(Cl)c(Cl)c1 [Compound 16, 3-chloro-5-(3,4-dichlorophenoxy)-4H--1,2,6-thiadiazin-4-one]
Uromyces phaseoli
  pest or weed control at 150 ppm: 90%
Venturia inaequalis; 1.0 ppm
  Spore Germination Rating: 0 (0-10)
Venturia inaequalis; 2.5 ppm
  Spore Germination Rating: 0 (0-10)
Venturia inaequalis; 10 ppm
  Spore Germination Rating: 0 (0-10)
Venturia inaequalis; 40 ppm
  Spore Germination Rating: 0 (0-10)

## O=c1c(Cl)nsnc1Oc1ccc(Cl)cc1Cl [Compound 17, 3-chloro-5-(2,4-dichlorophenoxy)-4H--1,2,6-thiadiazin-4-one]
Uromyces phaseoli
  pest or weed control at 150 ppm: 100%
Venturia inaequalis; 1.0 ppm
  Spore Germination Rating: 0 (0-10)
Venturia inaequalis; 2.5 ppm
  Spore Germination Rating: 0 (0-10)
Venturia inaequalis; 10 ppm
  Spore Germination Rating: 0 (0-10)
Venturia inaequalis; 40 ppm
  Spore Germination Rating: 0 (0-10)

## Nc1ccc(Oc2nsnc(Cl)c2=O)cc1 [Compound 27, 5-(4-aminophenoxy)-3-chloro-4H--1,2,6-thiadiazine-4-one hydrochloride]
Venturia inaequalis; 1.0 ppm, hydrochloride
  Spore Germination Rating: 0 (0-10)
Venturia inaequalis; 2.5 ppm, hydrochloride
  Spore Germination Rating: 0 (0-10)
Venturia inaequalis; 10 ppm, hydrochloride
  Spore Germination Rating: 0 (0-10)
Venturia inaequalis; 40 ppm, hydrochloride
  Spore Germination Rating: 0 (0-10)

## O=c1c(Cl)nsnc1Oc1ccc(O)cc1 [Compound 35, 3-chloro-5-(4-hydroxyphenoxy)-4H-1,2,6-thiadiazin-4-one]
Uromyces phaseoli
  pest or weed control at 150 ppm: 100%

## O=C(Nc1ccccc1)Oc1ccc(Oc2nsnc(Cl)c2=O)cc1 [Compound 37, 3-chloro-5-[4-(phenylaminocarbonyloxy)phenoxy]-4H-1,2,6,-thiadiazin-4-one]
Uromyces phaseoli
  pest or weed control at 150 ppm: 100%

## O=C(OCc1ccccc1)Oc1ccc(Oc2nsnc(Cl)c2=O)cc1 [Compound 38, 3-chloro-5-[4-(phenylmethoxycarbonyloxy)phenoxyl]-4H-1,2,6-thiadiazin-4-one]
Uromyces phaseoli
  pest or weed control at 150 ppm: 0%

## C[S+]([O-])c1ccc(Oc2nsnc(Cl)c2=O)cc1 (stereo not shown) [Compound 40, 3-chloro-5-[(4-methylsulfinyl)phenoxy]-4H-1,2,6,-thiadiazin-4-one]
Uromyces phaseoli
  pest or weed control at 150 ppm: 98%

## N#CCc1ccc(Oc2nsnc(Cl)c2=O)cc1 [Compound 46, 3-chloro-5-[(4-cyanomethyl)-phenoxy]4H--1,2,6-thiadiazin-4-one]
Uromyces phaseoli
  pest or weed control at 150 ppm: 0%

## COc1ccc(Cl)c(Oc2nsnc(Cl)c2=O)c1 [Compound 51, 3-chloro-5-[(2-chloro-5-methoxy)phenoxy]-4H--1,2,6-thiadiazin-4-one]
Uromyces phaseoli
  pest or weed control at 150 ppm: 0%

## COc1cc(Cl)cc(Oc2nsnc(Cl)c2=O)c1 [Compound 52, 3-chloro-5-[(3-chloro-5-methoxy)phenoxy]-4H--1,2,6-thiadiazin-4-one]
Uromyces phaseoli
  pest or weed control at 150 ppm: 0%

## O=c1c(Cl)nsnc1Oc1ccc([N+](=O)[O-])cc1Cl [Compound 53, 3-chloro-5-(2-chloro-4-nitrophenoxy)-4H--1,2,6-thiadiazin-4-one]
Uromyces phaseoli
  pest or weed control at 150 ppm: 100%

## COc1cc(Oc2nsnc(Cl)c2=O)cc(OC)c1C(C)=O [Compound 61, 3-[(4-acetyl-3,5-dimethoxy)-phenoxy]-5-chloro-4H--1,2,6-thiadiazin-4-one]
Uromyces phaseoli
  pest or weed control at 150 ppm: 100%
